Values of other authors, collected in patent US9434994B2, “Methods for prediction of clinical outcome to epidermal growth factor receptor inhibitors by non-small cell lung cancer patients” (The Regents of the University of Colorado, a body corporate, priority 2004, dated 2016).

System: advanced NSCLC patients
Conditions: cited from earlier work
[1] = unselected gefitinib treated NSCLC patients

## COc1cc2ncnc(Nc3ccc(F)c(Cl)c3)c2cc1OCCCN1CCOCC1 [gefitinib]
NSCLC patients treated with gefitinib
  stable disease rates: about 30%
Advanced disease progressing after standard therapies
  disease stabilization and symptomatic improvement: about 40%
[1]
  Objective Response: up to 18%
  symptomatic improvement: 40%
